Experimental data from ChEMBL document CHEMBL4004838, “Design and synthesis of novel phenyl -1, 4-beta-carboline-hybrid molecules as potential anticancer agents” (Eur J Med Chem, 2017).
Activity calls are given as the source filed them. No cut-off for these calls is given here.

Assays:
UACC-257 = assay: Growth inhibition of human UACC257 cells assessed as cell growth at 0.01 uM incubated for 48 hrs by sulforhodamine B assay relative to control; type: functional; conditions: UACC-257, 48 h, read-out: Activity
HOP-92 [1] = assay: Growth inhibition of human HOP92 cells incubated for 48 hrs by sulforhodamine B assay; type: functional; conditions: HOP-92, 48 h
HOP-62 = assay: Growth inhibition of human HOP62 cells assessed as cell growth at 100 uM incubated for 48 hrs by sulforhodamine B assay relative to control; type: functional; conditions: HOP-62, 48 h, read-out: Activity
LOX IMVI = assay: Growth inhibition of human LOXIMVI cells assessed as cell growth at 0.01 uM incubated for 48 hrs by sulforhodamine B assay relative to control; type: functional; conditions: read-out: Activity
NCI-H226 [2] = assay: Growth inhibition of human NCI-H226 cells assessed as cell growth at 100 uM incubated for 48 hrs by sulforhodamine B assay relative to control; type: functional; conditions: NCI-H226, 48 h, read-out: Activity
NCI-H23 = assay: Growth inhibition of human NCI-H23 cells assessed as cell growth at 100 uM incubated for 48 hrs by sulforhodamine B assay relative to control; type: functional; conditions: NCI-H23, 48 h, read-out: Activity
RPMI-8226 = assay: Growth inhibition of human RPMI8226 cells assessed as cell growth at 0.01 uM incubated for 48 hrs by sulforhodamine B assay relative to control; type: functional; conditions: RPMI-8226, 48 h, read-out: Activity
NCI-H226 [3] = assay: Growth inhibition of human NCI-H226 cells assessed as cell growth at 0.1 uM incubated for 48 hrs by sulforhodamine B assay relative to control; type: functional; conditions: NCI-H226, 48 h, read-out: Activity
SF-268 = assay: Growth inhibition of human SF268 cells assessed as cell growth at 1 uM incubated for 48 hrs by sulforhodamine B assay relative to control; type: functional; conditions: SF-268, 48 h, read-out: Activity
SK-MEL-2 = assay: Growth inhibition of human SK-MEL-2 cells assessed as cell growth at 100 uM incubated for 48 hrs by sulforhodamine B assay relative to control; type: functional; conditions: SK-MEL-2, 48 h, read-out: Activity
U-251 = assay: Growth inhibition of human U251 cells incubated for 48 hrs by sulforhodamine B assay; type: functional; conditions: U-251, 48 h
SNB-75 = assay: Growth inhibition of human SNB75 cells assessed as cell growth at 0.1 uM incubated for 48 hrs by sulforhodamine B assay relative to control; type: functional; conditions: SNB-75, 48 h, read-out: Activity
HL-60(TB) = assay: Growth inhibition of human HL-60(TB) cells assessed as cell growth at 0.1 uM incubated for 48 hrs by sulforhodamine B assay relative to control; type: functional; conditions: HL-60, 48 h, read-out: Activity
NCI-H226 [4] = assay: Growth inhibition of human NCI-H226 cells assessed as cell growth at 0.01 uM incubated for 48 hrs by sulforhodamine B assay relative to control; type: functional; conditions: NCI-H226, 48 h, read-out: Activity
BT-549 = assay: Growth inhibition of human BT549 cells assessed as cell growth at 100 uM incubated for 48 hrs by sulforhodamine B assay relative to control; type: functional; conditions: BT-549, 48 h, read-out: Activity
NCI/ADR-RES = assay: Growth inhibition of human NCI-ADR-RES cells assessed as cell growth at 100 uM incubated for 48 hrs by sulforhodamine B assay relative to control; type: functional; conditions: read-out: Activity
ACHN = assay: Growth inhibition of human ACHN cells assessed as cell growth at 100 uM incubated for 48 hrs by sulforhodamine B assay relative to control; type: functional; conditions: read-out: Activity
786-0 = assay: Growth inhibition of human 786-0 cells incubated for 48 hrs by sulforhodamine B assay; type: functional; conditions: 786-0, 48 h
Bos taurus = species: Bos taurus; assay: Induction of calf thymus DNA intercalation assessed as compound-DNA complex formation at 5 uM incubated for 1 hr by ethidium bromide staining based agarose gel electrophoresis relative to control
OVCAR-5 = assay: Growth inhibition of human OVCAR5 cells incubated for 48 hrs by sulforhodamine B assay; type: functional; conditions: OVCAR-5, 48 h
A498 = assay: Growth inhibition of human A498 cells assessed as cell growth at 0.1 uM incubated for 48 hrs by sulforhodamine B assay relative to control; type: functional; conditions: A498, 48 h, read-out: Activity
UACC-62 = assay: Growth inhibition of human UACC62 cells assessed as cell growth at 0.01 uM incubated for 48 hrs by sulforhodamine B assay relative to control; type: functional; conditions: UACC-62, 48 h, read-out: Activity
Malme-3M = assay: Growth inhibition of human MALME-3M cells assessed as cell growth at 0.1 uM incubated for 48 hrs by sulforhodamine B assay relative to control; type: functional; conditions: read-out: Activity
CAKI-1 = assay: Growth inhibition of human Caki1 cells assessed as cell growth at 0.01 uM incubated for 48 hrs by sulforhodamine B assay relative to control; type: functional; conditions: CAKI-1, 48 h, read-out: Activity
MDA-MB-435 = assay: Growth inhibition of human MDA-MB-435 cells assessed as cell growth at 0.1 uM incubated for 48 hrs by sulforhodamine B assay relative to control; type: functional; conditions: MDA-MB-435, 48 h, read-out: Activity
SW-620 = assay: Growth inhibition of human SW620 cells assessed as cell growth at 0.01 uM incubated for 48 hrs by sulforhodamine B assay relative to control; type: functional; conditions: SW-620, 48 h, read-out: Activity
MCF7 = assay: Growth inhibition of human MCF7 cells assessed as cell growth at 100 uM incubated for 48 hrs by sulforhodamine B assay relative to control; type: functional; conditions: MCF7, 48 h, read-out: Activity
HOP-92 [5] = assay: Growth inhibition of human HOP92 cells assessed as cell growth at 1 uM incubated for 48 hrs by sulforhodamine B assay relative to control; type: functional; conditions: HOP-92, 48 h, read-out: Activity
TK-10 = assay: Growth inhibition of human TK10 cells assessed as cell growth at 0.01 uM incubated for 48 hrs by sulforhodamine B assay relative to control; type: functional; conditions: TK-10, 48 h, read-out: Activity
MOLT-4 = assay: Growth inhibition of human MOLT4 cells assessed as cell growth at 0.01 uM incubated for 48 hrs by sulforhodamine B assay relative to control; type: functional; conditions: MOLT-4, 48 h, read-out: Activity
NCI-H322M = assay: Growth inhibition of human NCI-H322M cells assessed as cell growth at 0.1 uM incubated for 48 hrs by sulforhodamine B assay relative to control; type: functional; conditions: read-out: Activity
[6] = read-out: LC50 (the source's name)
[7] = read-out: pLC50 (the source's name) (converted)

For `c1ccc2c3c([nH]c2c1)C(c1ccc(C2NCCc4c2[nH]c2ccccc42)cc1)NCC3` (racemic), the growth at 0.01 µM (UACC-257) was 101%, the CC50 (HOP-92 [1]; [6]) was 9.59 µM and the GI50 (HOP-92 [1]; read-out: pGI50 (converted)) was 0.724 µM. It also gave a CC50 (HOP-92 [1]; [7]) of 9.55 µM, a TGI (HOP-92 [1]; read-out: pTGI (converted)) of 2.88 µM and a growth at 100 µM (HOP-62) of 83%. The growth at 0.01 µM (LOX IMVI) was 94%, the growth at 100 µM (NCI-H226 [2]) was 60% and the growth at 100 µM (NCI-H23) was 86%. The growth at 0.01 µM (RPMI-8226) was 102%, the growth at 0.1 µM (NCI-H226 [3]) was 95% and the growth at 1 µM (SF-268) was 57%. The growth at 100 µM (SK-MEL-2) was 93%, the GI50 (U-251; read-out: pGI50 (converted)) was 0.324 µM and the TGI (U-251; read-out: pTGI (converted)) was 1.1 µM. The growth at 0.1 µM (SNB-75) was 72%, the growth at 0.1 µM (HL-60(TB)) was 116% and the growth at 0.01 µM (NCI-H226 [4]) was 97%. The growth at 100 µM (BT-549) was -90%, the growth at 100 µM (NCI/ADR-RES) was -30% and the growth at 100 µM (ACHN) was -91%. It also gave a GI50 (786-0; read-out: GI50) of 1.74 µM, a CC50 (786-0; [6]) of 6.54 µM and a TGI (786-0; read-out: TGI) of 3.38 µM. The GI50 (786-0; read-out: pGI50 (converted)) was 1.74 µM, the CC50 (786-0; [7]) was 6.61 µM and the TGI (786-0; read-out: pTGI (converted)) was 3.39 µM. The Activity (Bos taurus) was “Active”, the GI50 (OVCAR-5; read-out: GI50) was 1.8 µM and the CC50 (OVCAR-5; [6]) was 9.65 µM. The TGI (OVCAR-5; read-out: TGI) was 4.17 µM, the GI50 (OVCAR-5; read-out: pGI50 (converted)) was 1.82 µM and the CC50 (OVCAR-5; [7]) was 9.55 µM. For the same compound, the TGI (OVCAR-5; read-out: pTGI (converted)) was 4.17 µM, the growth at 0.1 µM (A498) was 67% and the growth at 0.01 µM (UACC-62) was 96%. It also gave a growth at 0.1 µM (Malme-3M) of 89%, a growth at 0.01 µM (CAKI-1) of 90% and a growth at 0.1 µM (MDA-MB-435) of 99%. The growth at 0.01 µM (SW-620) was 101%, the growth at 100 µM (MCF7) was -74% and the growth at 1 µM (HOP-92 [5]) was 44%. For the same compound, the growth at 0.01 µM (TK-10) was 97%, the growth at 0.01 µM (MOLT-4) was 110% and the growth at 0.1 µM (NCI-H322M) was 91%.

Compound `c1ccc2[nH]c(-c3ccc(-c4nccc5c4[nH]c4ccccc45)cc3)nc2c1` has a growth at 0.01 µM (UACC-257) of 93%, a GI50 (HOP-92 [1]; read-out: GI50) of 2.06 µM and a CC50 (HOP-92 [1]; [6]) of 2.98 µM. For the same compound, the TGI (HOP-92 [1]; read-out: TGI) was 5.79 µM, the GI50 (HOP-92 [1]; read-out: pGI50 (converted)) was 2.04 µM and the CC50 (HOP-92 [1]; [7]) was 29.5 µM. The TGI (HOP-92 [1]; read-out: pTGI (converted)) was 5.75 µM, the growth at 100 µM (HOP-62) was 70% and the growth at 0.01 µM (LOX IMVI) was 93%. It also gave a growth at 100 µM (NCI-H226 [2]) of 50%, a growth at 100 µM (NCI-H23) of 54% and a growth at 0.01 µM (RPMI-8226) of 106%. The growth at 0.1 µM (NCI-H226 [3]) was 104%, the growth at 1 µM (SF-268) was 93% and the growth at 100 µM (SK-MEL-2) was 64%. The GI50 (U-251; read-out: GI50) was 2.74 µM, the LC50 (U-251; read-out: LC50) was 4.05 µM and the TGI (U-251; read-out: TGI) was 7.83 µM. It also gave a GI50 (U-251; read-out: pGI50 (converted)) of 2.75 µM, an LC50 (U-251; read-out: pLC50 (converted)) of 40.7 µM and a TGI (U-251; read-out: pTGI (converted)) of 7.76 µM. For the same compound, the growth at 0.1 µM (SNB-75) was 78%, the growth at 0.1 µM (HL-60(TB)) was 92% and the growth at 0.01 µM (NCI-H226 [4]) was 93%. It also gave a growth at 100 µM (BT-549) of 43%, a growth at 100 µM (NCI/ADR-RES) of 45% and a growth at 100 µM (ACHN) of 98%. The GI50 (786-0; read-out: GI50) was 2.24 µM, the CC50 (786-0; [6]) was 3.83 µM and the TGI (786-0; read-out: TGI) was 6.3 µM. It also gave a GI50 (786-0; read-out: pGI50 (converted)) of 2.24 µM, a CC50 (786-0; [7]) of 38 µM and a TGI (786-0; read-out: pTGI (converted)) of 6.31 µM. For the same compound, the Activity (Bos taurus) was “Active”, the GI50 (OVCAR-5; read-out: GI50) was 2.43 µM and the CC50 (OVCAR-5; [6]) was 5 µM. The TGI (OVCAR-5; read-out: TGI) was 6.47 µM, the GI50 (OVCAR-5; read-out: pGI50 (converted)) was 2.45 µM and the CC50 (OVCAR-5; [7]) was 50.1 µM. It also gave a TGI (OVCAR-5; read-out: pTGI (converted)) of 6.46 µM, a growth at 0.1 µM (A498) of 83% and a growth at 0.01 µM (UACC-62) of 89%. The growth at 0.1 µM (Malme-3M) was 94%, the growth at 0.01 µM (CAKI-1) was 91% and the growth at 0.1 µM (MDA-MB-435) was 93%. The growth at 0.01 µM (SW-620) was 103%, the growth at 100 µM (MCF7) was 72% and the growth at 1 µM (HOP-92 [5]) was 85%. The growth at 0.01 µM (TK-10) was 96%, the growth at 0.01 µM (MOLT-4) was 96% and the growth at 0.1 µM (NCI-H322M) was 101%.
